# Experimental data: US9234000B2, “Benzylamine derivatives as inhibitors of plasma kallikrein” (KalVista Pharmaceuticals Limited, priority 2011, dated 2016)
# Where two headings read alike, the source gives them in different places.
# Key:
# physchem = settings: pH 7
# Experimental: Determination of the Kinetic Solubility in Phosphate Buffer
# After shaking for approximately 30 seconds the reduction in light transmission of these samples, at 650 nm, was measured (Molecular Devices Spectromax UV/visible spectrophotometer). A second measurement was taken at approximately 30 seconds later.
# Human plasma kallikrein = Human plasma kallikrein (Homo sapiens (Human), UniProt P03952); test: Determination of the IC50 for plasma kallikrein; format: biochemical; settings: 37° C., read-out: IC50 (human PKal)
# Sequence of Human plasma kallikrein (P03952 391-638): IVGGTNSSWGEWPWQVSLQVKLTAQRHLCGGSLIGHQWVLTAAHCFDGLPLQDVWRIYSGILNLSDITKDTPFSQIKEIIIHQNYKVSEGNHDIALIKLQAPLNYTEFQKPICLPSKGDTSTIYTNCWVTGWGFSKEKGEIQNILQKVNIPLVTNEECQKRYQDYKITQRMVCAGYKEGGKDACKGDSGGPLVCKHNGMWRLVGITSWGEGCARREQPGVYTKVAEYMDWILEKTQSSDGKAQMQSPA
# Sequence of Human plasma kallikrein (P03952 20-390 partner): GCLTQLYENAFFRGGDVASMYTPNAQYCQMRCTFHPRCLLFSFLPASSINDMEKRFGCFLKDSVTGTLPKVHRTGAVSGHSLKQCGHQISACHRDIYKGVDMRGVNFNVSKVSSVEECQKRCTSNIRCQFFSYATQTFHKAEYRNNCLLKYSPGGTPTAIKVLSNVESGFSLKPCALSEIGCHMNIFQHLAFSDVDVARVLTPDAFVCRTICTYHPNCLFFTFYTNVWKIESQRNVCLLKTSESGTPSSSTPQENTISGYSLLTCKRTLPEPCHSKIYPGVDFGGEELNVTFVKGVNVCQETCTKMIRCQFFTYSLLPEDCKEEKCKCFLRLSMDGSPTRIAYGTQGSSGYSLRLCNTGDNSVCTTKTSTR
# Summary of the method: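 Residual activity (initial rate, absorbance at 410 nm) gave the IC50. Reactions at 37° C combined human plasma kallikrein, substrate H-DPro-Phe-Arg-AFC and a range of inhibitor concentrations.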
# Human KLK1 = Human KLK1 (Homo sapiens (Human), UniProt P06870); test: Determination of the IC50 for KLK1; format: biochemical; settings: Human KLK1, 37° C., substrate H-DVal-Leu-Arg-AFC
# Sequence of Human KLK1 (P06870 25-262): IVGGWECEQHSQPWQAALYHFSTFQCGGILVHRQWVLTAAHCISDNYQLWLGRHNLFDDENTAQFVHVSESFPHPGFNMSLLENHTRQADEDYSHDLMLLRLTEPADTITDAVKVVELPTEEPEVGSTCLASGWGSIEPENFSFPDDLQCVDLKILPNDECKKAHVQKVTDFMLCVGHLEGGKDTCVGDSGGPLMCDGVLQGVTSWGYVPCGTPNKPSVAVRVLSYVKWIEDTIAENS
# Summary of the method: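 Human KLK1 incubated at 37° C with fluorogenic substrate H-DVal-Leu-Arg-AFC and a range of test compound concentrations. Residual activity taken as initial reaction rate from absorbance change at 410 nm; IC50 derived from these rates.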
# [1] = Determination of thermodynamic solubility in phosphate buffer; format: physicochemical; settings: pH 7.4, aqueous buffer, thermodynamic from solid, ammonium phosphate buffer pH7.4, 290 mOsm, 37° C., nominal 1 mg/mL, read-out: Solubility in PO4 buffer
# Experimental: Determination of Thermodynamic Solubility in Phosphate Buffer
# The thermodynamic solubility of compound was determined in Ammonium Phosphate Buffer (pH7.4, 290 mOsm). Compounds were made up at a nominal concentration of 1 mg/mL, vortexed then placed on a shaker for 1 h, 37° C. at approximately 950 rpm. Following incubation samples were transferred to eppendorf tubes and centrifuged at 15,000 g (r.c.f.) for 10 minutes at 37° C. The concentration of compound in the supernatant was determined by LC-MS/MS analysis using a calibration line prepared from a DMSO stock.
# [2] = fluorogenic substrate H-DPro-Phe-Arg-AFC
solubility in PO4 buffer (physchem) [µM],IC50 (Human plasma kallikrein; [2]) [nM],IC50 (Human KLK1; Table 12) [nM],solubility at 1 h [1] [µg/mL],IC50 (Human plasma kallikrein; substrate H-DPro-Phe-Arg-AFC) [nM],IC50 (Human KLK1; Table 13) [nM],SMILES
> 235,790,> 10000,–,–,–,"CCCN(C)[C@H](CC1CCCCC1)C(=O)N[C@@H](Cc1ccccc1)C(=O)NCc1ccc(CN)cc1 [Example 45, (R)-N-[(S)-1-(4-Aminomethyl-benzylcarbamoyl)-2-phenyl-ethyl]-3-cyclohexyl-2-(methyl-propyl-amino)-propionamide]"
> 235,1000,> 10000,–,–,–,"NCc1ccc(CNC(=O)[C@H](Cc2ccccc2)NC(=O)[C@@H](CC2CCCCC2)NCCO)cc1 [Example 51, (R)-N-[(S)-1-(4-Aminomethyl-benzylcarbamoyl)-2-phenyl-ethyl]-3-cyclohexyl-2-(2-hydroxy-ethylamino)-propionamide]"
> 235,860,9500,–,–,–,"NCc1ccc(CNC(=O)[C@H](Cc2ccccc2)NC(=O)[C@H](N)C(C2CCCCC2)C2CCCCC2)cc1 [Example 52, (R)-2-Amino-N-[(S)-1-(4-aminomethyl-benzylcarbamoyl)-2-phenyl-ethyl]-3,3-dicyclohexyl-propionamide]"
> 235,650,> 10000,–,–,–,"CCCN(CCC)[C@H](CC1CCCCC1)C(=O)N[C@@H](Cc1ccccc1)C(=O)NCc1ccc(CN)cc1 [Example 53, (R)-N-[(S)-1-(4-Aminomethyl-benzylcarbamoyl)-2-phenyl-ethyl]-3-cyclohexyl-2-dipropylamino-propionamide]"
> 235,1600,> 10000,–,–,–,"CCOc1ccc(C[C@@H](NC(=O)CC)C(=O)N2CC[C@H](c3ccccc3)[C@H]2C(=O)NCc2ccc(CN)cc2)cc1 [Example 67, (2S,3R)-1-[(R)-3-(4-Ethoxy-phenyl)-2-propionylamino-propionyl]-3-pheny-pyrrolidine-2-carboxylic acid 4-aminomethyl-benzylamide]"
–,–,–,11.5,126,7500,"CCOc1ccc(C[C@@H](NC(=O)c2cccnc2)C(=O)N[C@@H](Cc2ccccc2)C(=O)NCc2ccc(CN)cc2)cc1 [Example 70, N-[(R)-1-[(S)-1-(4-Aminomethyl-benzylcarbamoyl)-2-phenyl-ethylcarbamoyl]-2-(4-ethoxy-phenyl)-ethyl]-nicotinamide]"
–,–,–,22.1,77,> 10000,"CCOc1ccc(C[C@@H](NC(=O)c2ccncc2)C(=O)N[C@@H](Cc2ccccc2)C(=O)NCc2ccc(CN)cc2)cc1 [Example 71, N-[(R)-1-[(S)-1-(4-Aminomethyl-benzylcarbamoyl)-2-phenyl-ethylcarbamoyl]-2-(4-ethoxy-phenyl)-ethyl]-isonicotinamide]"
–,–,–,6.9,46,9100,"CCOc1ccc(C[C@@H](NC(=O)c2ccsc2)C(=O)N[C@@H](Cc2ccccc2)C(=O)NCc2ccc(CN)cc2)cc1 [Example 72, Thiophene-3-carboxylic acid-[(R)-1-[(S)-1-(4-aminomethyl-benzylcarbamoyl)-2-phenyl-ethylcarbamoyl]-2-(4-ethoxy-phenyl)-ethyl]-amide]"
–,–,–,5.1,25,9300,"CCOc1ccc(C[C@@H](NC(=O)c2cccs2)C(=O)N[C@@H](Cc2ccccc2)C(=O)NCc2ccc(CN)cc2)cc1 [Example 73, Thiophene-2-carboxylic acid [(R)-1-[(S)-1-(4-aminomethyl-benzylcarbamoyl)-2-phenyl-ethylcarbamoyl]-2-(4-ethoxy-phenyl)-ethyl]-amide]"
–,–,–,1.06,270,> 10000,"CCOc1ccc(C[C@@H](NC(=O)C2CCCCC2)C(=O)N[C@@H](Cc2ccccc2)C(=O)NCc2ccc(CN)cc2)cc1 [Example 75, Cyclohexanecarboxylic acid [(R)-1-[(S)-1-(4-aminomethyl-benzylcarbamoyl)-2-phenyl-ethylcarbamoyl]-2-(4-ethoxy-phenyl)-ethyl]-amide]"
–,–,–,2.4,38,8600,"CCOc1ccc(C[C@@H](NC(=O)c2ccno2)C(=O)N[C@@H](Cc2ccccc2)C(=O)NCc2ccc(CN)cc2)cc1 [Example 79, Isoxazole-5-carboxylic acid [(R)-1-[(S)-1-(4-aminomethyl-benzylcarbamoyl)-2-phenyl-ethylcarbamoyl]-2-(4-ethoxy-phenyl)-ethyl]-amide]"
–,–,–,1.3,40,> 10000,"CCOc1ccc(C[C@@H](NC(=O)c2ccccn2)C(=O)N[C@@H](Cc2ccccc2)C(=O)NCc2ccc(CN)cc2)cc1 [Example 81, Pyridine-2-carboxylic acid [(R)-1-[(S)-1-(4-aminomethyl-benzylcarbamoyl)-2-phenyl-ethylcarbamoyl]-2-(4-ethoxy-phenyl)-ethyl]-amide]"
–,–,–,0.5,219,1200,"CCOc1ccc(C[C@@H](NS(=O)(=O)c2ccc(Cl)cc2)C(=O)N[C@@H](Cc2ccccc2)C(=O)NCc2ccc(CN)cc2)cc1 [Example 84, (R)-N-[(S)-1-(4-Aminomethyl-benzylcarbamoyl)-2-phenyl-ethyl]-2-(4-chloro-benzenesulfonylamino)-3-(4-ethoxy-phenyl)-propionamide]"
–,–,–,0.2,90,> 10000,"CCOc1ccc(C[C@@H](NC(=O)c2cccc(Cl)c2)C(=O)N[C@@H](Cc2ccccc2)C(=O)NCc2ccc(CN)cc2)cc1 [Example 88, N-[(R)-1-[(S)-1-(4-Aminomethyl-benzylcarbamoyl)-2-phenyl-ethylcarbamoyl]-2-(4-ethoxy-phenyl)-ethyl]-3-chloro-benzamide]"
–,–,–,0.2,–,–,"CCOc1ccc(C[C@@H](NC(=O)c2ccc(C)cc2)C(=O)N[C@@H](Cc2ccccc2)C(=O)NCc2ccc(CN)cc2)cc1 [Example 92, N-[(R)-1-[(S)-1-(4-Aminomethyl-benzylcarbamoyl)-2-phenyl-ethylcarbamoyl]-2-(4-ethoxy-phenyl)-ethyl]-4-methyl-benzamide]"
–,–,–,2.05,–,–,"CCOc1ccc(C[C@@H](NC(=O)c2ccc(OC)cc2)C(=O)N[C@@H](Cc2ccccc2)C(=O)NCc2ccc(CN)cc2)cc1 [Example 95, N-[(R)-1-[(S)-1-(4-Aminomethyl-benzylcarbamoyl)-2-phenyl-ethylcarbamoyl]-2-(4-ethoxy-phenyl)-ethyl]-4-methoxy-benzamide]"
–,–,–,2.88,95,> 10000,"CCOc1ccc(C[C@@H](NC(=O)c2ccc(F)cc2)C(=O)N[C@@H](Cc2ccccc2)C(=O)NCc2ccc(CN)cc2)cc1 [Example 99, N-[(R)-1-[(S)-1-(4-Aminomethyl-benzylcarbamoyl)-2-phenyl-ethylcarbamoyl]-2-(4-ethoxy-phenyl)-ethyl]-4-fluoro-benzamide]"
–,–,–,1.39,18,6300,"CCOc1ccc(C[C@@H](NC(=O)c2sccc2Cl)C(=O)N[C@@H](Cc2ccccc2)C(=O)NCc2ccc(CN)cc2)cc1 [Example 116, 3-Chloro-thiophene-2-carboxylic acid [(R)-1-[(S)-1-(4-aminomethyl-benzylcarbamoyl)-2-phenyl-ethylcarbamoyl]-2-(4-ethoxy-phenyl)-ethyl]-amide]"
–,–,–,1.61,15,6100,"CCOc1ccc(C[C@@H](NC(=O)c2sccc2C)C(=O)N[C@@H](Cc2ccccc2)C(=O)NCc2ccc(CN)cc2)cc1 [Example 119, 3-Methyl-thiophene-2-carboxylic acid [(R)-1-[(S)-1-(4-aminomethyl-benzylcarbamoyl)-2-phenyl-ethylcarbamoyl]-2-(4-ethoxy-phenyl)-ethyl]-amide]"
–,–,–,64.5,20,8400,"CCOc1ccc(C[C@@H](NC(=O)c2[nH]ccc2C)C(=O)N[C@@H](Cc2ccccc2)C(=O)NCc2ccc(CN)cc2)cc1 [Example 124, 3-Methyl-1H-pyrrole-2-carboxylic acid [(R)-1-[(S)-1-(4-aminomethyl-benzylcarbamoyl)-2-phenyl-ethylcarbamoyl]-2-(4-ethoxy-phenyl)-ethyl]-amide]"
–,–,–,0.56,–,–,"CCCOc1ccc(C[C@@H](NC(=O)c2ccccc2)C(=O)N[C@@H](Cc2ccccc2)C(=O)NCc2ccc(CN)cc2)cc1 [Example 131, N-[(R)-1-[(S)-1-(4-Aminomethyl-benzylcarbamoyl)-2-phenyl-ethylcarbamoyl]-2-(4-propoxy-phenyl)-ethyl]-benzamide]"
–,–,–,2.28,–,–,"CCOc1ccc(C[C@@H](NC(=O)c2ccccc2)C(=O)N[C@@H](Cc2c[nH]c3ccccc23)C(=O)NCc2ccc(CN)cc2)cc1 [Example 176, N-[(R)-1-[(S)-1-(4-Aminomethyl-benzylcarbamoyl)-2-(1H-indol-3-yl)-ethylcarbamoyl]-2-(4-ethoxy-phenyl)-ethyl]-benzamide]"
